The record followed here is patent publication US7442713B2, “2-thio-substituted imidazole derivatives and their use in pharmaceutics” (Merckle GmbH, priority 2002, dated 2008).

Read-outs that look alike come from different tables or passages of the source.

The target of this test is activated p38α (Homo sapiens, UniProt Q16539). Put plainly: Kinase assay (p38α, ATF2 substrate, ELISA read-out). In kind it is biochemical. The protocol:
At 37° C., microtiter plates were coated with 50 μl of ATF2 solution ([…]) for one hour. The plates were washed three times with water, and 50 μl of kinase mixture (50 mM tris-HCl, 10 mM MgCl2, 10 mM β-glycerol phosphate, 10 μg/ml BSA, 1 mM DTT, 100 μM ATP, 100 μM Na3VO4, 10 ng of activated p38α) with or without inhibitor were then added into the wells, and the plates were incubated at 37° C. for 1 hour. The plates were washed three times and then incubated at 37° C. with phosphorus-ATF-2 antibodies for one hour. Once more, the plates were washed three times, and goat-anti-rabbit IgG labeled with alkaline phosphatase was then added at 37° C. for one hour (to immobilize antibody-phosphorylated protein-substrate complex). After washing three times, the alkaline phosphatase-substrate solution (3 mM 4-NPP, 50 mM NaHCO3, 50 mM MgCl2, 100 μl/well) was added at 37° C. for 1.5 hours. The formation of 4-nitrophenolate was measured at 405 nm using a microtiter plate reader. The IC50 values were calculated.
In general terms: An ELISA detects its analyte on a solid surface through an enzyme-linked reagent.

[1] abbreviates: Table 1, 100 μM ATP, 10 ng activated p38α, read-out: Kinase assay IC50.

Sequence of activated p38α (Q16539 whole entry): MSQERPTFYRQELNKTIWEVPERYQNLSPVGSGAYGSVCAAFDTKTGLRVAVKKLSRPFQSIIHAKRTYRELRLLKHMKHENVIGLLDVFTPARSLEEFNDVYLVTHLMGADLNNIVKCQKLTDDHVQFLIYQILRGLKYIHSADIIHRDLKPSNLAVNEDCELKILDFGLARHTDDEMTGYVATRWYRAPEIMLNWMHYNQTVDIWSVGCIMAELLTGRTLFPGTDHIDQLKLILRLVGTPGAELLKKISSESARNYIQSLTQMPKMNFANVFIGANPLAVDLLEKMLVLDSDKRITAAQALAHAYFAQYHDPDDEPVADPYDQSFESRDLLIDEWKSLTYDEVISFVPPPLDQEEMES

Take `CC(=O)C(Sc1nc(-c2ccc(F)cc2)c(-c2ccncc2)n1C)C(C)=O` [Example 28, 3-[4-(4-Fluorophenyl)-1-methyl-5-pyridin-4-yl-1H-imidazol-2-ylsulfanyl]pentane-2,4-dione]: under setting [1], the IC50 is 9.5 µM.

In the case of `CCOC(=O)C(Sc1nc(-c2ccc(F)cc2)c(-c2ccncc2)n1C)C(C)=O` (stereo not shown) [Example 29, Ethyl 2-[4-(4-fluorophenyl)-1-methyl-5-pyridin-4-yl-1H-imidazol-2-ylsulfanyl]-3-oxobutanoate], the “Kinase assay % at 10^−5 mol/l” value (Table 1, at 10^−5 mol/l) amounted to 13.8% at10^−5 mol/l.

Consider `CCOC(=O)CC(=O)CSc1nc(-c2ccc(F)cc2)c(-c2ccncc2)n1C` [Example 30, Ethyl 4-[4-(4-fluorophenyl)-1-methyl-5-pyridin-4-yl-1H-imidazol-2-ylsulfanyl]-3-oxobutanoate], for which the IC50 under setting [1] was found to be 4.8 µM.

Consider `COC(=O)/C=C/CSc1nc(-c2ccc(F)cc2)c(-c2ccncc2)n1C` [Example 31, Methyl 4-[4-(4-fluorophenyl)-1-methyl-5-pyridin-4-yl-1H-imidazol-2-ylsulfanyl]but-2-enoate], for which the IC50 under setting [1] was 42 µM.

Consider `Cn1c(SCC(=O)N2CCOCC2)nc(-c2ccc(F)cc2)c1-c1ccncc1` [Example 32, 2-[4-(4-Fluorophenyl)-1-methyl-5-pyridin-4-yl-1H-imidazol-2-ylsulfanyl]-1-morpholin-4-ylethanone], for which, under setting [1], the IC50 came out at 90 µM.

For the compound `Cn1c(SCC(=O)N2CCCCC2)nc(-c2ccc(F)cc2)c1-c1ccncc1` [Example 33, 2-[4-(4-Fluorophenyl)-1-methyl-5-pyridin-4-yl-1H-imidazol-2-ylsulfanyl]-1-piperidin-1-ylethanone], the IC50 under setting [1] came out at 75 µM.

In the case of `Cn1c(SCC(=O)O)nc(-c2ccc(F)cc2)c1-c1ccncc1` [Example 36, 2-[4-(4-Fluorophenyl)-1-methyl-5-pyridin-4-yl-1H-imidazol-2-ylsulfanyl]acetic acid], the IC50 under setting [1] worked out at 1.6 µM.

As for `Cn1c(SCCC(=O)O)nc(-c2ccc(F)cc2)c1-c1ccncc1` [Example 37, 3-[4-(4-Fluorophenyl)-1-methyl-5-pyridin-4-yl-1H-imidazol-2-ylsulfanyl]propionic acid], the IC50 under setting [1] worked out at 2 µM.

In the case of `CC(=O)CC(=O)CSc1nc(-c2ccc(F)cc2)c(-c2ccncc2)n1C` [Example 38, 1-[4-(4-Fluorophenyl)-1-methyl-5-pyridin-4-yl-1H-imidazol-2-ylsulfanyl]pentane-2,4-dione], where the note is “Table 1”, the “Kinase assay % at 10^−6 mol/l” value is 12.22% at10^−6 mol/l.

Regarding `Cn1c(SCCCC(=O)O)nc(-c2ccc(F)cc2)c1-c1ccncc1` [Example 39, 4-[4-(4-Fluorophenyl)-1-methyl-5-pyridin-4-yl-1H-imidazol-2-ylsulfanyl]butanoic acid], the IC50 under setting [1] worked out at 5 µM.

Regarding `Cn1c(SCC(=O)NC(CO)(CO)CO)nc(-c2ccc(F)cc2)c1-c1ccncc1` [Example 40, 2-[4-(4-Fluorophenyl)-1-methyl-5-pyridin-4-yl-1H-imidazol-2-ylsulfanyl]-N-(2-hydroxy-1,1-bishydroxymethylethyl)acetamide], under setting [1], the IC50 was found to be 0.8 µM.

With `Cn1c(SCC(=O)N(CCO)CCO)nc(-c2ccc(F)cc2)c1-c1ccncc1` [Example 41, 2-[4-(4-Fluorophenyl)-1-methyl-5-pyridin-4-yl-1H-imidazol-2-ylsulfanyl]-N,N-bis(2-hydroxyethyl)acetamide], under setting [1], the IC50 stood at 0.41 µM.

`Cn1c(SCC(=O)NCC(O)CO)nc(-c2ccc(F)cc2)c1-c1ccncc1` (stereo not shown) [Example 42, N-(2,3-Dihydroxypropyl)-2-[4-(4-fluorophenyl)-1-methyl-5-pyridin-4-yl-1H-imidazol-2-ylsulfanyl]acetamide]: the “Kinase assay % at 10^−4 mol/l” value (Table 1, at 10^−4 mol/l) turned out to be 90.4% at10^−4 mol/l.

On to `Cn1c(SCCC(=O)NC(CO)(CO)CO)nc(-c2ccc(F)cc2)c1-c1ccncc1` [Example 43, 3-[4-(4-Fluorophenyl)-1-methyl-5-pyridin-4-yl-1H-imidazol-2-ylsulfanyl]-N-(2-hydroxy-1,1-bishydroxymethylethyl)propionamide], for which the IC50 under setting [1] stood at 12 µM.

With `Cn1c(SCCC(=O)N(CCO)CCO)nc(-c2ccc(F)cc2)c1-c1ccncc1` [Example 44, 3-[4-(4-Fluorophenyl)-1-methyl-5-pyridin-4-yl-1H-imidazol-2-ylsulfanyl]-N,N-bis(2-hydroxyethyl)propionamide], under setting [1], the IC50 turned out to be 30 µM.

In the case of `CCOC(=O)C(=O)CSc1nc(-c2ccc(F)cc2)c(-c2ccncc2)n1C` [Example 45, Ethyl 3-[4-(4-fluorophenyl)-1-methyl-5-pyridin-4-yl-1H-imidazol-2-ylsulfanyl]-2-oxopropionate], under setting [1], the IC50 was found to be 7 µM.

In the case of `Cn1c(SCCCCl)nc(-c2ccc(F)cc2)c1-c1ccncc1` [Example 47, 4-[2-(3-Chloropropylsulfanyl)-5-(4-fluorophenyl)-3-methyl-3H-imidazol-4-yl]pyridine], under setting [1], the IC50 came to 3.4 µM.

`Cn1c(SCCN2C(=O)c3ccccc3C2=O)nc(-c2ccc(F)cc2)c1-c1ccncc1` [Example 48, 2-{2-[4-(4-Fluorophenyl)-1-methyl-5-pyridin-4-yl-1H-imidazol-2-ylsulfanyl]ethyl}isoindole-1,3-dione]: the “Kinase assay % at 10^−6 mol/l” value (Table 1) is recorded as 30.9% at 10^−6 mol/l.

`Cn1c(SCCCN2C(=O)c3ccccc3C2=O)nc(-c2ccc(F)cc2)c1-c1ccncc1` [Example 49, 2-{3-[4-(4-Fluorophenyl)-1-methyl-5-pyridin-4-yl-1H-imidazol-2-ylsulfanyl]propyl}isoindole-1,3-dione]: under setting [1], the IC50 came to 2.4 µM.

For `Cn1c(SCC(O)CO)nc(-c2ccc(F)cc2)c1-c1ccncc1` (stereo not shown) [Example 57, 3-[4-(4-Fluorophenyl)-1-methyl-5-pyridin-4-yl-1H-imidazol-2-yl-sulfanyl]propan-1,2-diol], the IC50 (Table 2, read-out: p38α IC50) was determined as 3.6 µM.

For `Cn1c(SCCN)nc(-c2ccc(F)cc2)c1-c1ccncc1` [Example 59, 2-[4-(4-Fluorophenyl)-1-methyl-5-pyridin-4-yl-1H-imidazol-2-ylsulfanyl]ethylamine], the IC50 under setting [1] stood at 1.8 µM.

`Cn1c(SCCCN)nc(-c2ccc(F)cc2)c1-c1ccncc1` [Example 60]: the IC50 under setting [1] was determined as 1.4 µM.

Take `CC(=O)Nc1cc(-c2c(-c3ccc(F)cc3)nc(SCC(O)CO)n2C)ccn1` (stereo not shown) [Example 67, N-{4-[2-(2,3-dihydroxypropanesulfanyl)-5-(4-fluorophenyl)-3-methyl-3H-imidazol-4-yl]pyridin-2-yl}acetamide]: the inhibition at 1 µM (Table 2) came out at 77%. Further, where the note is “Table 2, read-out: p38α IC50”, the IC50 was determined as 0.43 µM.

On to `CC(=O)Nc1cc(-c2c(-c3ccc(F)cc3)nc(SCC(=O)N(CCO)CCO)n2C)ccn1` [Example 69, 2-[5-(2-Acetylaminopyridin-4-yl)-4-(4-fluorophenyl)-1-methyl-1H-imidazol-2-ylsulfanyl]-N,N-bis(2-hydroxyethyl)acetamide], for which, for the setting “Table 2”, the inhibition at 1 µM is 90%. The IC50 (Table 2, read-out: p38α IC50) came out at 0.25 µM.

As to `CCOC(=O)CCSc1nc(-c2ccc(F)cc2)c(-c2ccnc(NC(C)=O)c2)n1C` [Example 70, Ethyl 3-[5-(2-acetylaminopyridin-4-yl)-4-(4-fluorophenyl)-1-methyl-1H-imidazol-2-ylsulfanyl]propionate], the inhibition at 1 µM (Table 2) worked out at 83%. Also, the IC50 (Table 2, read-out: p38α IC50) amounted to 0.53 µM.

For the compound `Cn1c(SCC(=O)N(CCO)CCO)nc(-c2ccc(F)cc2)c1-c1ccnc(N)c1` [Example 71, 2-[5-(2-Aminopyridin-4-yl)-4-(4-fluorophenyl)-1-methyl-1H-imidazol-2-ylsulfanyl]-N,N-bis(2-hydroxyethyl)acetamide], the inhibition at 1 µM (Table 2) turned out to be 76%. Besides, where the note is “Table 2, read-out: p38α IC50”, the IC50 worked out at 0.9 µM.

As for `Cn1c(SCCC(=O)O)nc(-c2ccc(F)cc2)c1-c1ccnc(N)c1` [Example 72, 3-[5-(2-Aminopyridin-4-yl)-4-(4-fluorophenyl)-1-methyl-1H-imidazol-2-ylsulfanyl]propionic acid], where the note is “Table 2”, the inhibition at 1 µM worked out at 64%.

The IC50 is the concentration that gives 50% inhibition. What is called inhibition is how much of the control response was suppressed.
